Drawing on paper PMC2739411 (Anesthesiology, 2009), this text covers activation for one compound.

The assay addresses γ-aminobutyric acid type A (GABAA) receptor α1β2γ2L (Homo sapiens, UniProt P14867+P47870). Briefly: two-electrode voltage clamp in oocytes. Format: cell-based. Particulars: read-out: % enhancement of EC5-10 GABA current at 8 μM.

γ-aminobutyric acid type A (GABAA) receptor α1β2γ2L, sequence (P47870 26-512): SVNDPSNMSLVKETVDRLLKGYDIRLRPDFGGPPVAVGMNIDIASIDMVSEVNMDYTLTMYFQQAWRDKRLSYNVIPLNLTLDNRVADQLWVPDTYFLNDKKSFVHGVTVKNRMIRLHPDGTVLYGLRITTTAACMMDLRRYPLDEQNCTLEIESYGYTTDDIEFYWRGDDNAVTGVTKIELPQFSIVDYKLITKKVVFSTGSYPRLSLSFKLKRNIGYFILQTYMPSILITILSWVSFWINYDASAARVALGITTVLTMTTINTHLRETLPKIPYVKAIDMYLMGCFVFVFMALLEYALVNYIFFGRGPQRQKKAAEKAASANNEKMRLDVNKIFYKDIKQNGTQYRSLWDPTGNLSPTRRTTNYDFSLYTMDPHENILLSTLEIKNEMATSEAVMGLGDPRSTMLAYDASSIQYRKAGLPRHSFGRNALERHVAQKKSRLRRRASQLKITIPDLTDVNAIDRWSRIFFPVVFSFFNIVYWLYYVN
γ-aminobutyric acid type A (GABAA) receptor α1β2γ2L, sequence (P14867 28-456): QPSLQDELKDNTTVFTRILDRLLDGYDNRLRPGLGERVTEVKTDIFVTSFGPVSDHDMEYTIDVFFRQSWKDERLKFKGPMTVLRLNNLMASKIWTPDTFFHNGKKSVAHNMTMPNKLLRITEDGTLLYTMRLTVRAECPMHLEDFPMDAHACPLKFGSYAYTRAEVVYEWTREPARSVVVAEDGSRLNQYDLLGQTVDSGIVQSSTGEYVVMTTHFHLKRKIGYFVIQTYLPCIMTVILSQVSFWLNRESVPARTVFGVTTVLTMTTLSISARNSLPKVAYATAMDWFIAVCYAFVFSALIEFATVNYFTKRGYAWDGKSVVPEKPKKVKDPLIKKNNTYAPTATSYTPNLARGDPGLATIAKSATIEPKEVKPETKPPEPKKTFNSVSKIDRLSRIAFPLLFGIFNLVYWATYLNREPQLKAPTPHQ
γ-aminobutyric acid type A (GABAA) receptor α1β2γ2L, sequence (P18507 40-475 partner): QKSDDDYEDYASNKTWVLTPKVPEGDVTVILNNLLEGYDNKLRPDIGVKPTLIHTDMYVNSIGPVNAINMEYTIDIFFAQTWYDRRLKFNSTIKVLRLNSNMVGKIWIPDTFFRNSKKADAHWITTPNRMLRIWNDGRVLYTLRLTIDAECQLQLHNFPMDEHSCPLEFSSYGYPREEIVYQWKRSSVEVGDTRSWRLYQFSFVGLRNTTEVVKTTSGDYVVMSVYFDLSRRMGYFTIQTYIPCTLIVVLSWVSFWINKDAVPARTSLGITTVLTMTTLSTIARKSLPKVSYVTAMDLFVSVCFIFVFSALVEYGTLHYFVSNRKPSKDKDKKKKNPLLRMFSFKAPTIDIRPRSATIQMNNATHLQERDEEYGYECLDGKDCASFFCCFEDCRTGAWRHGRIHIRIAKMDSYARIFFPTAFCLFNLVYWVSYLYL

Take `COC(=O)CCOC(=O)c1cncn1[C@H](C)c1ccccc1` [compound 3, (R)-3-methoxy-3-oxopropyl1-(1-phenylethyl)-1H-imidazole-5-carboxylate]: the activation at 8 µM was found to be 450 ± 130%.
